Our source for the IC50 and EC50 values is patent publication US20240217951A1, “PCSK9 INHIBITORS AND METHODS OF USE THEREOF” (AstraZeneca AB, priority 2022, published 2024).

Test [1] concerns the target GSK3β (Glycogen synthase kinase-3 beta) (Homo sapiens, UniProt P49841). Kind of test: Assay 6 - GSK3β assay (ThermoFisher Z-Lyte). Format: biochemical. Particulars: geometric mean; ATP Conc: 10 μM; read-out: Assay 6 (GSK3β FRET-Z-Lyte CR) GMean IC50 (μM) ATP Conc: 10. The procedure:
Assay 6—GSK3β Assay (ThermoFisher Assay)
This assay measures the activity of the compounds at GSK3β (Glycogen synthase kinase-3 beta).
The test compounds were screened in 1% DMSO (final) in the well. For 10 point titrations, 3-fold serial dilutions are conducted from the starting concentration of 10 μM.
Bar-coded Corning, low volume NBS, black 384-well plate • 1. 2.5 μL—4× Test Compound or 100 nL 100× plus 2.4 μL kinase buffer • 2. 5 μL—2× Peptide/Kinase Mixture • 3. 2.5 μL—4×ATP Solution • 4. 30-second plate shake • 5. 60-minute Kinase Reaction incubation at room temperature • 6. 5 μL—Development Reagent Solution • 7. 30-second plate shake • 8. 60-minute Development Reaction incubation at room temperature • 9. Read on fluorescence plate reader and analyse the data
In step 2, the 2×GSK3β (GSK3 beta)/Ser/Thr (Glycogen synthase kinase-3 beta/Serine/Threonine) 09 mixture is prepared in 50 mM HEPES (4-(2-hydroxyethyl)-1-piperazineethanesulfonic acid) pH 7.5, 0.01% BRIJ-35, 10 mM MgCl2, 1 mM EGTA (egtazic acid). The final 10 μL Kinase Reaction consists of 0.22-0.92 ng GSK3β (GSK3 beta) and 2 μM Ser/Thr 09 in 50 mM HEPES pH 7.5, 0.01% BRIJ-35, 10 mM MgCl2, 1 mM EGTA.
In step 3 the ATP Solution is diluted to a 4× working concentration in Kinase Buffer (50 mM HEPES pH 7.5, 0.01% BRIJ-35, 10 mM MgCl2, 1 mM EGTA).
In Step 6 the Development Reagent is diluted 1:512 in Development Buffer (10× Novel PKC Lipid Mix: 2 mg/mL Phosphatidyl Serine, 0.2 mg/mL DAG in 20 mM HEPES, pH 7.4, 0.3% CHAPS).
SelectScreen® Kinase Profiling Service uses XLfit from IDBS. The dose response curve is curve fit to model number 205 (sigmoidal dose-response model).

The target of test [2] is T1, potassium ion channel hERG (human Ether-á-go-go-Related Gene) (Homo sapiens, UniProt Q12809).
T1 construct: expressed in transfected cells; host or cells: Chinese hamster ovary K1 (CHO)
T1 sequence (Q12809 whole entry): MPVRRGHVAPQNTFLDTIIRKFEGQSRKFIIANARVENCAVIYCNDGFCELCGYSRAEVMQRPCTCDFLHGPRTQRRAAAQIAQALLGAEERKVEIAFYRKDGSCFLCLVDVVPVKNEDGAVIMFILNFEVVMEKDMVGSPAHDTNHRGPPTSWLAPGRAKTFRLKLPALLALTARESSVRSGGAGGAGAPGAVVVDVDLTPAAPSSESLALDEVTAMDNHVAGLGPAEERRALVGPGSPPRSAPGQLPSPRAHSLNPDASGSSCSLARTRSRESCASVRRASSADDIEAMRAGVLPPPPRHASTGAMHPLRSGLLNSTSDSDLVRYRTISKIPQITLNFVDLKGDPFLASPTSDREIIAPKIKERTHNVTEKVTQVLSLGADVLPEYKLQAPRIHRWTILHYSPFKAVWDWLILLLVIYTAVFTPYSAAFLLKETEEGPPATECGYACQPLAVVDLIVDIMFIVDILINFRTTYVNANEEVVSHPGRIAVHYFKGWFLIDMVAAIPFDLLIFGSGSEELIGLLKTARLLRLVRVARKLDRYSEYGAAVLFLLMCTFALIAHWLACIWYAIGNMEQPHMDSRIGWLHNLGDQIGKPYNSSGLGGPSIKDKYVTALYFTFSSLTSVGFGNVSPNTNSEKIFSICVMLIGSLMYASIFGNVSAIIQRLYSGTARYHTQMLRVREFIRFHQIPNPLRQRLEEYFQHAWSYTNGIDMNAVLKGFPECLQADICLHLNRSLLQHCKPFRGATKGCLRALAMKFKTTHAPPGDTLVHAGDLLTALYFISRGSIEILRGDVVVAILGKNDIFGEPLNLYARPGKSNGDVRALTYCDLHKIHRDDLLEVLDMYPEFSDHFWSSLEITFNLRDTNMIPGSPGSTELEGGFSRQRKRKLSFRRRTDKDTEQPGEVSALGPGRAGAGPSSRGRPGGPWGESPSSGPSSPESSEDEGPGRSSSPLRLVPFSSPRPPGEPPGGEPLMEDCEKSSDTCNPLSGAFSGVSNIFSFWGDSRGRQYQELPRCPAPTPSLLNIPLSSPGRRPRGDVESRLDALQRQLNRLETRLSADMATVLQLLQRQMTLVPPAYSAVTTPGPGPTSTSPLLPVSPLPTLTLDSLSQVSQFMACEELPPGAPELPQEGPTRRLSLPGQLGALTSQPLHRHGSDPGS
Kind of test: Assay 5 - hERG assay (SyncroPatch 384PE patch clamp, CHO cells). In kind it is cell-based. Particulars: geometric mean; CHO cells over-expressing hERG; read-out: Assay 5 (hERG Hu CHO IF EPh CR-Syncro) GMean IC50. The procedure:
Assay 5—hERG Assay (Human Ether-á-go-go-Related Gene)
This assay (human Ether-á-go-go-Related Gene) measures activity of the compounds at the potassium ion channel hERG (human Ether-á-go-go-Related Gene).
Experiments were performed on the SyncroPatch 384PE high throughput patch clamp platform at room temperature and medium resistance chips with 4 patch holes per site. Chinese hamster ovary K1 (CHO) cell lines over-expressing the ion channel of choice (hERG) were used in assay-ready format and kept in liquid nitrogen or were used from live culture. Cells were either thawed and diluted in HBSS or were detached from flasks and resuspended in HBSS. HBSS comprised 140 mM NaCl, 4 mM KCl, 10 mM HEPES and 5 mM Glucose (pH7.4). The internal patch clamp solution was KF 120 mM, KCl 20 mM, HEPES 10 mM, EGTA 10 mM, and 25 PM Escin (pH 7.2). After the sealing process was complete, the external solution was exchanged for external patch clamp solution comprising NaCl 80 mM, KCl 4 mM, HEPES 10 mM, CaCl2 2 mM, MgCl2 1 mM, glucose 5 mM, and NMDG 60 mM (pH 7.4). All solutions were stored at room temperature, except Escin, which was stored at 4° C. All test compounds were dispensed in greiner-bio 384 well plates and tested in a 6 point cumulative assay (final DMSO concentration 0.33%). Only wells that passed previously agreed acceptance criteria for this platform were used in this analysis (30 MegaOhm seal resistance, Z prime >0.4 and current size >0.2 nA).
On the technique in general: Block of hERG is tested as a sign of cardiac risk.

The target in test [3] is T2, PCSK9 (Homo sapiens, UniProt Q8NBP7, G670E/V474I). Kind of test: Assay 3 - PCSK9 LDL-C uptake assay in HepG2 cells. Format: cell-based. More on the design: TEV cleavage site (C); His6 (C); host or cells: added to HepG2 cells (ATCC #HB-8065). Particulars: 125 nM PCSK9, pHrodo Red-LDL, read-out: Assay 3 LDL uptake potency. An excerpt: Assay 3—PCSK9 LDL-C Uptake Assay
T2 sequence (Q8NBP7 with tags, fused parts or gaps V474I/G670E): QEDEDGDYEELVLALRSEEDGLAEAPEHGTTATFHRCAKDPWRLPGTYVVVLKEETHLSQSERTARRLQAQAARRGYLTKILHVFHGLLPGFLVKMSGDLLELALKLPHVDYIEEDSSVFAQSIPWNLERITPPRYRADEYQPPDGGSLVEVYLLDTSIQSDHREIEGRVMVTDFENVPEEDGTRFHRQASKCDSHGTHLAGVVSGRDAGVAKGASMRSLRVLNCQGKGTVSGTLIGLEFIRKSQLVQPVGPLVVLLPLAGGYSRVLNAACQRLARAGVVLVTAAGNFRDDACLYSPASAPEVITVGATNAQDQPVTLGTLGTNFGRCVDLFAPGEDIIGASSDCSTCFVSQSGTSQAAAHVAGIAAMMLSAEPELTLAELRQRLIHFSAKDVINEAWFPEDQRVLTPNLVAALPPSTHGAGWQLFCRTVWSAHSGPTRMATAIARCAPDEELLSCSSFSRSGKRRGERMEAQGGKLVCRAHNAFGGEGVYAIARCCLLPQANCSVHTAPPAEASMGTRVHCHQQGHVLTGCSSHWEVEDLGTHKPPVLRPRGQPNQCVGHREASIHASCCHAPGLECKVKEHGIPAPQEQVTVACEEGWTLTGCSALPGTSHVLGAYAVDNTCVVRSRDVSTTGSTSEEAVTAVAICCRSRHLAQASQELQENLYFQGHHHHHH
This assay measures for PCSK9 antagonist activity based on a test compound's capacity to restore LDL-C-uptake in HepG2 cells. The assay is based on exogenous PCSK9 and LDL-C complexed with a pH-sensitive dye. Outside the cells, at neutral pH, the pHrodo Red-LDL is dimly fluorescent but upon LDLR mediated endocytosis it fluoresces brightly. PCSK9 traffics the LDLR to intracellular degradation and reduces uptake of LDL-C. Inhibition of PCSK9 reduces LDLR degradation and the increased LDL-C uptake is quantified by fluorescence microscopy.
Preparation of Assay Reagents
Cell medium: MEM supplemented with 10% FBS, 1×NEAA and Sodium Pyruvate Assay medium: OptiMem supplemented with penicillin/streptomycin
Cells: HepG2 (ATCC #HB-8065)
Step by Step Protocol for Running the Assay:
• 1. Cryopreserved HepG2 cells were thawed in assay medium and centrifuged for 5 min at 250 g. Supernatant was discarded and the cell pellet resuspended in cell medium and counted with a Nucleocounter. Cells were again centrifuged 5 min at 250 g and the pellet was resuspended to 500000 cells/mL in assay medium. • 2. 20 μL of above cell mix was dispensed into black pclear TC treated 384 well plates with Multidrop Combi and left at room temperature for 20 minutes. • 3. Plates were incubated at 37° C., 5% CO2 for 24 h
• 1. Test compounds were prepared in concentration response in DMSO with a half-log dilution factor in DMSO in Echo 384 LDV plates starting at 10 mM. • 2. 30 nL of above test compounds were dispensed with Echo 655 to cells for a top concentration of 10 μM • 3. 10 μL PCSK9 in assay medium was dispensed to cells with Multidrop Combi for 125 nM final concentration in the wells. • 4. Plates were incubated at 37° C., 5% CO2 for 24 h
• 1. 10 μL pHrodo Red-LDL in assay medium was dispensed to cells with Multidrop Combi for 6 μg/mL • 2. Plates were incubated at 37° C., 5% CO2 and imaged with the Incucyte S3 after 4 h and 24 h
Image data was processed using Incucyte 2021, a software to identify cells and red fluorescent intensity. Screener was used to further process data. Data was normalized as % effect of the signal between median values of the on-plate controls of DMSO and 100 nM Evolocumab according to the formula % effect=−100*(x−DMSO)/(Evolocumab−DMSO) where x equals the measured signal. Concentration response data of the normalized values were fitted using a four-parameter logistic fit.

Test [4] deals with T2, PCSK9. Kind of test: biochemical.

GSK3β (Glycogen synthase kinase-3 beta), sequence (P49841 whole entry): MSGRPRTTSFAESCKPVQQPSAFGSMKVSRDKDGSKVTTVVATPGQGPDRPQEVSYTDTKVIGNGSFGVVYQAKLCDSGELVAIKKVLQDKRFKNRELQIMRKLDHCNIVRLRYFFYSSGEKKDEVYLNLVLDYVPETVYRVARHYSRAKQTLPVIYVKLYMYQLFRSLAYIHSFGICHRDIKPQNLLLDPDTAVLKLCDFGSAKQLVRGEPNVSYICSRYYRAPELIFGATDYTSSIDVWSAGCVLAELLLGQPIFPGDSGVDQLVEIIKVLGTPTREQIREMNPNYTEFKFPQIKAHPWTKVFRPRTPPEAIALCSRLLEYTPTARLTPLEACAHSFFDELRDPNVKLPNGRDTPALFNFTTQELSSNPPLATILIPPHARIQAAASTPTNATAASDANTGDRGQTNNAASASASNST

On to `Cc1cnc(N[C@H]2CC[C@H](Nc3ccc(-n4cc(CS(C)(=O)=O)ccc4=O)cn3)C2)cn1` [Example 259, 6′-(((1S,3S)-3-((5-Methylpyrazin-2-yl)amino)cyclopentyl)amino)-5-((methylsulfonyl)methyl)-2H-[1,3′-bipyridin]-2-one], for which the IC50 (in general, the concentration at which inhibition is half-maximal) in test [1] was above 10 µM; in test [2] it was above 40100 nM; in test [4] it was 43 nM. In addition, in test [3], the EC50 is above 600 nM.
Regarding `Cn1c(=O)n(-c2ccc(N[C@H]3CC[C@H](Nc4cnc(C5CC5)cn4)C3)nc2)c2ncccc21` [Example 105, 3-(6-(((1S,3S)-3-((5-Cyclopropylpyrazin-2-yl)amino)cyclopentyl)amino)pyridin-3-yl)-1-methyl-1,3-dihydro-2H-imidazo[4,5-b]pyridin-2-one], the values for the IC50 in test [1], in test [2] and in test [4] were above 10 µM, 20400 nM and 6.4 nM, respectively. Further, in test [3], the EC50 was 800 nM.
With `Cc1cnc(N[C@H]2CC[C@H](Nc3ccc(-n4cccc(C(F)(F)F)c4=O)cn3)C2)cn1` [Example 147, 6′-(((1S,3S)-3-((5-Methylpyrazin-2-yl)amino)cyclopentyl)amino)-3-(trifluoromethyl)-2H-[1,3′-bipyridin]-2-one], the figures for the IC50 in test [1], in test [2] and in test [4] were above 10 µM, 16600 nM and 5.2 nM, respectively. Besides, in test [3], the EC50 was determined as 100 nM.
With `Cc1cnc(N[C@H]2CC[C@H](Nc3ccc(-n4cc(Cl)ccc4=O)cn3)C2)cn1` [Example 43, 5-Chloro-6′-(((1S,3S)-3-((5-methylpyrazin-2-yl)amino)cyclopentyl)amino)-2H-[1,3′-bipyridin]-2-one], the IC50 in test [1] is above 10 µM; in test [2], above 40000 nM; in test [4], 22 nM. Also, the EC50 in test [3] turned out to be 700 nM.
Regarding `COc1cccn(-c2ccc(N[C@H]3CC[C@H](Nc4cnc(C)cn4)C3)nc2)c1=O` (relative stereo) [Example 172, rel-3-Methoxy-6′-(((1R,3R)-3-((5-methylpyrazin-2-yl)amino)cyclopentyl)amino)-2H-[1,3′-bipyridin]-2-one], the results for the IC50 in test [1], in test [2] and in test [4] were 3.7 µM, above 40100 nM and 5.3 nM, respectively. Besides, the EC50 in test [3] was 100 nM.
In the case of `N#Cc1ccc(=O)n(-c2ccc(N[C@H]3CC[C@H](Nc4cnc(C5CC5)cn4)C3)nc2)c1` [Example 110, 6′-(((1S,3S)-3-((5-Cyclopropylpyrazin-2-yl)amino)cyclopentyl)amino)-2-oxo-2H-[1,3′-bipyridine]-5-carbonitrile], the figures for the half-maximal inhibitory concentration (IC50) in test [1], in test [2] and in test [4] were above 10 µM, 25300 nM and 48 nM, respectively.
For the compound `Cc1ncc(N[C@H]2CC[C@H](Nc3ccc(N4CC(=O)N(C)C4=O)cn3)C2)nc1C` [Example 16, 1-(6-(((1S,3S)-3-((5,6-Dimethylpyrazin-2-yl)amino)cyclopentyl)amino)pyridin-3-yl)-3-methylimidazolidine-2,4-dione], the concentration for half-maximal inhibition (IC50) in test [1] is above 10 µM; in test [2], above 40000 nM; in test [4] it was 103 nM.
Consider `Cc1cnc(N[C@H]2CC[C@H](Nc3ccc(-n4ccccc4=O)cn3)C2)c(=O)[nH]1` [Example 253, 6′-(((1S,3S)-3-((5-Methyl-3-oxo-3,4-dihydropyrazin-2-yl)amino)cyclopentyl)amino)-2H-[1,3′-bipyridin]-2-one], for which the 50% inhibitory concentration (IC50) in test [1] was above 10 µM; in test [2] it was above 40100 nM; in test [4], 307 nM.
Taken in the same sequence, the figures for `CN1C(=O)CN(c2ccc(N[C@H]3CC[C@H](Nc4cnc(Cl)cn4)C3)nc2)C1=O` [Example 26, 1-(6-(((1S,3S)-3-((5-Chloropyrazin-2-yl)amino)cyclopentyl)amino)pyridin-3-yl)-3-methylimidazolidine-2,4-dione] were above 10 µM, 14300 nM and 24.3 nM.
As to `N#Cc1cccn(-c2ccc(N[C@H]3CC[C@H](Nc4cnc(OC(F)F)cn4)C3)nc2)c1=O` [Example 90, 6′-(((1S,3S)-3-((5-(Difluoromethoxy)pyrazin-2-yl)amino)cyclopentyl)amino)-2-oxo-2H-[1,3′-bipyridine]-3-carbonitrile], the values for the IC50 in test [1], in test [2] and in test [4] were above 10 µM, 11700 nM and 15 nM, respectively.
In the case of `O=c1ccc(-c2nnn[nH]2)cn1-c1ccc(N[C@H]2CC[C@H](Nc3cnc(Cl)cn3)C2)nc1` [Example 179, 6′-(((1S,3S)-3-((5-Chloropyrazin-2-yl)amino)cyclopentyl)amino)-5-(1H-tetrazol-5-yl)-2H-[1,3′-bipyridin]-2-one], the 50% inhibitory concentration (IC50) was determined as 6.9 µM in test [1] and 4.7 nM in test [4]. In test [3], the EC50 stood at 100 nM.
Turning to `Cc1ccc(=O)n(-c2ccc(N[C@H]3CC[C@H](Nc4cnc(Cl)cn4)C3)nc2)c1` [Example 30, 6′-(((1S,3S)-3-((5-Chloropyrazin-2-yl)amino)cyclopentyl)amino)-5-methyl-2H-[1,3′-bipyridin]-2-one], the results for the IC50 in test [1], in test [2] and in test [4] were above 10 µM, 32200 nM and 27 nM, respectively.
Turning to `Cc1cnc(N[C@H]2CC[C@H](Nc3ccc(N4C(=O)CCc5ccccc54)cn3)C2)cn1` [Example 274, 1-(6-(((1S,3S)-3-((5-Methylpyrazin-2-yl)amino)cyclopentyl)amino)pyridin-3-yl)-3,4-dihydroquinolin-2 (1H)-one], the half-inhibitory concentration (IC50) in test [1] was above 10 µM; in test [2] it was 17100 nM; in test [4] it was 8.1 nM.
